# Measured values published in patent US20210355086A1, “PROCESS FOR PREPARING A NOVEL PHENICOL ANTIBACTERIAL AGENT” (Zoetis Services LLC, priority 2018, published 2021).
# Assays:
# [1] = tested on: Gram-positive bacteria and Gram-negative bacteria; conditions: background statement; cited from earlier work
# [2] = tested on: M. haemolytica (strain 34195); assay: M. haemolytica trans-tracheal challenge study in Holstein/Holstein cross cattle; conditions: for back transform LSmean percent lung lesions / mortality: end of study (6 days)
# [3] = tested on: naturally occurring BRD infection; assay: Naturally occurring BRD infection treatment study in cattle; type: in vivo, cattle (mixed beef and/or dairy breeds); conditions: for treatment success based on respiratory symptoms and attitude: control about 20%
# Experimental: In a second study, cattle (mixed beef and/or dairy breeds; 180-270 kg) were treated from a naturally occurring BRD infection. Animals (n=40/group) received a single subcutaneous dose of saline (control) or test (15 mg/kg or 20 mg/kg) compound. Overall, treatment success, based on respiratory symptoms (rate, mucopurulent nasal or ocular discharge, open mouth breathing) and attitude (alert, stimuli response time, muscle weakness, ataxia, swaying) was about 37% and 47% for the 15 mg/kg and 20 mg/kg dose, respectively. In contrast, control animal success was about 20%.
# [4] = tested on: A3579 (OSU-012103-BHI) strain of Mannheimia haemolytica; assay: Mannheimia haemolytica trans-tracheal challenge BRD study in dairy calves; type: in vivo; conditions: for percentage of lung lesion at necropsy, upper range value: control about 45%
# Experimental: In one study, healthy dairy calves (N=15/group; 85-140 kg) were trans-tracheally infected -2 to -1 days with the […] (OSU-012103-BHI) strain of Mannheimia haemolytica. The challenge dose ranged from about […] to 4.9×10^8 CFU. On Day 0, BRD symptomatic animals received a single subcutaneous dose of saline (control) or test (20 or 40 mg/kg) compound. At necropsy, control animals presented with an upper range of lung lesions of about 45%. […] Therefore, a single dose of the Formula (1) compound administered subcutaneously was effective for the treatment of BRD caused by M. haemolytica in dairy calves.
# [5] = 40 mg/kg (T02, T05) subcutaneously 4-6 hours post challenge, saline T01 35.1%
# [6] = 40 mg/kg (T02, T05) subcutaneously 4-6 hours post challenge, saline T01 53.3%
# [7] = T03, positive control, dose not given, subcutaneously 4-6 hours post challenge
SMILES,antibacterial activity relative to thiamphenicol [1],"back transform LSmean percent lung lesions [2, 5] [%]","mortality [2, 6] [%]","back transform LSmean percent lung lesions [2, 7] [%]","mortality [2, 7] [%]",treatment success based on respiratory symptoms and attitude ([3]; 15 mg/kg single subcutaneous dose),treatment success based on respiratory symptoms and attitude ([3]; 20 mg/kg single subcutaneous dose) [%],treatment effect in cattle with natural BRD infections (conclusion) ([3]; single subcutaneous dose 15 or 20 mg/kg),"percentage of lung lesion at necropsy, upper range value ([4]; 20 mg/kg single subcutaneous dose on Day 0)","percentage of lung lesion at necropsy, upper range value ([4]; 40 mg/kg single subcutaneous dose on Day 0) [%]","treatment of BRD caused by M. haemolytica (conclusion) ([4]; single dose administered subcutaneously, dairy calves)",percent lung lesions compared with T03 (Baytril) ([2]; T04 (20 mg/kg) and T05 (40 mg/kg)),"back transform LSmean percent lung lesions ([2]; T04, 20 mg/kg subcutaneously 4-6 hours post challenge, saline T01 35.1%) [%]","mortality ([2]; T04, 20 mg/kg subcutaneously 4-6 hours post challenge, saline T01 53.3%) [%]"
"CS(=O)(=O)c1ccc([C@@H](O)[C@@H](CF)NC(=O)C(Cl)Cl)cc1 [Nuflor, florfenicol, reference compound]",up to 10 times,32.1,46.7,–,–,–,–,–,–,–,–,–,–,–
"CCN1CCN(c2cc3c(cc2F)c(=O)c(C(=O)O)cn3C2CC2)CC1 [Baytril, enrofloxacin, reference compound]",–,–,–,9.1,0,–,–,–,–,–,–,–,–,–
"CS(=N)(=O)c1ccc(-c2ccc([C@@H](O)[C@@H](CF)NC(=O)C(F)F)cc2)cn1 (stereo partly drawn) [Formula (1) compound, 2,2-difluoro-N-((1R,2S)-3-fluoro-1-hydroxy-1-(4-(6-(S-methylsulfonimidoyl)pyridin-3-yl)phenyl)propan-2-yl)acetamide]",–,6.8,0,–,–,about 37%,~47,significant treatment effect,about 12%,~8,effective,not different,13.3,0
